Experimental data published in US4885309A, “Therapeutic treatment of leukotriene-mediated dermal inflammation by topical administration of 3,4-dihydro-2H-1-benzopyran derivatives” (Hoffmann-La Roche Inc., priority 1986, dated 1989).

Legend:
[1] = test system: arachidonic acid-induced ear edema; assay: Mouse ear edema test (in vivo), arachidonic acid-induced; parameters: species or system CD-1 male mice; conditions: for % Inhibition (± S.E.M.): eight mice
From the text: Dermatol. 80: 48 (1983), and Humes, Opas and Bonney, "Arachidonic Acid Metabolites in Mouse Ear Edema". Advances in Inflammation Research, 11: 57 (1986).
CD-1 male mice weighing 15 to 25 g were employed, and they were designated as follows: (1) Control Group, in which no arachidonic acid or test compound were to be applied, (2) Arachidonic Acid-Treated Group, in which no test compound was to be applied, and (3) Treated Group, in which the test compound was to be applied first, followed by the application of arachidonic acid. The test compound was again racemic-6-acetyl-7-[5-(4-acetyl-3-hydroxy-2-propylphenoxy)pentyloxy]-3,4-dihydro-2H-1-benzopyran-2-carboxylic acid.
In the case of the Group (3) animals, the test compound, dissolved in acetone, was applied to the dorsal surface of the right ear of the mouse with a 25-microliter pipettor, with the dose of the test compound being varied as shown in Tables 3 and 4. After 0.5 hour in some cases and 4 hours in others, the arachidonic acid was topically applied in the same manner as above to the pretreated ear areas. In each case of arachidonic acid application, an amount of 0.5 mg dissolved in 25 microliters of acetone was used. Application was made topically to the dorsal surface of the right ear with a 25-microliter pipettor. After one hour, the mice were sacrificed by carbon dioxide inhalation. A 6 mm-diameter standard biopsy punch was used to obtain a uniform tissue sample from the ear of each mouse so treated, and the tissue samples were weighed to the nearest 0.1 mg. The percent inhibition of ear edema formation was calculated as follows: [formula]

[2] = test system: leukotriene-induced vascular permeability; assay: Inhibition of leukotriene (LTD4)-induced vascular permeability by topical test compound, rats; type: in vivo, male rats (Sprague-Dawley strain); conditions: for % Inhibition (± S.E.M.): rat, topical 4 hours prior to LTD4 injection
Description: (§1) The test compound was administered to the same number of animals as before by applying one drop (50 microliters) directly on the skin surface of a 10% by weight solution of the test compound in dimethylsulfoxide (DMSO). This amounted to 5 mg of test compound per site of application. […] Evans blue dye (0.5% in saline) was then injected intravenously into each animal, using the same procedure describd for Part (a), above. After thirty minutes the animals were sacrificed, the dorsal skins were removed, and the extent of dye migration was measured as above. The effectiveness of the test compound was calculated as the Percent (%) Inhibition of Leukotriene-Induced Permeability, as follows: [formula] where MWS=mean wheal size.

[3] = test system: leukotriene-induced vascular permeability; assay: Inhibition of leukotriene (LTD4)-induced vascular permeability by topical test compound, guinea pigs; type: in vivo, male guinea pigs (Hartley strain); conditions: for % Inhibition (± S.E.M.): guinea pig, topical 4 hours prior to LTD4 injection
Description: as §1

Structure (SMILES): CCCc1c(OCCCCCOc2cc3c(cc2C(C)=O)CCC(C(=O)O)O3)ccc(C(C)=O)c1O (racemic) [test compound, 6-acetyl-7-[5-(4-acetyl-3-hydroxy-2-propylphenoxy)pentyloxy]-3,4-dihydro-2H-1-benzopyran-2-carboxylic acid]
- % Inhibition (± S.E.M.) ([1]; 0.5 Hour Pretreatment, 0.1 mg applied topically in 25 μl acetone): 19 ± 10%
- % Inhibition (± S.E.M.) ([1]; 0.5 Hour Pretreatment, 0.2 mg applied topically in 25 μl acetone): 21 ± 12%
- % Inhibition (± S.E.M.) ([1]; 0.5 Hour Pretreatment, 0.5 mg applied topically in 25 μl acetone): 42 ± 12%
- % Inhibition (± S.E.M.) ([1]; 0.5 Hour Pretreatment, 1.0 mg applied topically in 25 μl acetone): 63 ± 4%
- % Inhibition (± S.E.M.) ([1]; 0.5 Hour Pretreatment, 2.0 mg applied topically in 25 μl acetone): 65 ± 1%
- % Inhibition (± S.E.M.) ([1]; 4 Hour Pretreatment, 0.1 mg applied topically in 25 μl acetone): 26 ± 9%
- % Inhibition (± S.E.M.) ([1]; 4 Hour Pretreatment, 0.2 mg applied topically in 25 μl acetone): 31 ± 12%
- % Inhibition (± S.E.M.) ([1]; 4 Hour Pretreatment, 0.5 mg applied topically in 25 μl acetone): 28 ± 9%
- % Inhibition (± S.E.M.) ([1]; 4 Hour Pretreatment, 1.0 mg applied topically in 25 μl acetone): 37 ± 7%
- % Inhibition (± S.E.M.) ([1]; 4 Hour Pretreatment, 2.0 mg applied topically in 25 μl acetone): 68 ± 7%
- inhibition of edema ([1]; amounts up to 2 mg, both 0.5 and 4 hours prior to arachidonic acid application): significant inhibition of edema
- % Inhibition (± S.E.M.) ([2]; 2.5% in DMSO): 28 ± 4%
- % Inhibition (± S.E.M.) ([2]; 5.0% in DMSO): 50 ± 6%
- % Inhibition (± S.E.M.) ([2]; 10.0% in DMSO): 59 ± 6%
- % Inhibition (± S.E.M.) ([2]; 25.0% in DMSO): 67 ± 5%
- time of peak activity (inhibition of leukotriene-induced vascular permeability) ([2]; rats, relative to guinea pigs (2-4 hours), 5 mg per site (10% in DMSO) topical, LTD4 0.4 microgram per site): somewhat later
- inhibition of leukotriene-induced vascular permeability ([2]; rats, 5 mg per site (10% in DMSO) topical, time variation): inhibited leukotriene-induced vascular permeability
- inhibition of leukotriene-induced vascular permeability increase, variation of concentration ([2]; rats, topical 4 hours prior to leukotriene injection): inhibited the leukotriene-induced vascular permeability increase in a dose-related manner
- % Inhibition (± S.E.M.) ([3]; 5.0% in DMSO): 11 ± 3%
- % Inhibition (± S.E.M.) ([3]; 10.0% in DMSO): 33 ± 3%
- % Inhibition (± S.E.M.) ([3]; 15.0% in DMSO): 43 ± 4%
- % Inhibition (± S.E.M.) ([3]; 25.0% in DMSO): 49 ± 4%
- inhibition of leukotriene-induced vascular permeability ([3]; guinea pigs, 5 mg per site (10% in DMSO) topical, time variation): inhibited leukotriene-induced vascular permeability
- time of peak activity (inhibition of leukotriene-induced vascular permeability) ([3]; guinea pigs, 5 mg per site (10% in DMSO) topical, LTD4 0.4 microgram per site): 2 to 4 h
- inhibition of leukotriene-induced vascular permeability increase, variation of concentration ([3]; guinea pigs, topical 4 hours prior to leukotriene injection): inhibited the leukotriene-induced vascular permeability increase in a dose-related manner
